Measured values taken from patent publication US8367623B2, “Glycolipid and medicine for autoimmune disease containing the same as active ingredient” (Japan as Represented by President of National Center of …, priority 2001, dated 2013).

Legend:
Murine spleen cells [1] = assay: spleen cell proliferation reaction (thymidine incorporation); format: cell-based; details: FIG. 7 and FIG. 9
Description: Murine spleen cells were isolated, and the proliferation reaction for the synthesized glycolipids were measured using thymidine incorporation into the cells as the indicator.
(§1) Murine spleen cells were isolated, and the proliferation reactions for synthesized glycolipids were measured using thymidine incorporation into the cells as the indicator. […] Murine spleen cells were isolated, and levels of INF-γ and IL-4 formation due to the synthesized glycolipids were measured using the ELISA method.

Murine spleen cells [2] = assay: spleen cell cytokine measurements (INF-γ and IL-4, ELISA); format: cell-based; details: FIG. 8 and FIG. 9
Description: Murine spleen cells were isolated, and levels of INF-γ and IL-4 formation due to synthesized glycolipids were measured using the ELISA method.
as §1

[3] = test system: experimental autoimmune encephalomyelitis (EAE); assay: experimental autoimmune encephalomyelitis (EAE) suppression test, B6 mice; format: in vivo, C57BL6J(B6) mice; details: for Incidence / Onset / Total score / Max. score / Path. score: 400 ng/kg; for Path. score: pathological score 0-4; for EAE suppression effect: oral administration 400 ng/kg
serum INF-γ and IL-4 = assay: cytokines in blood (serum INF-γ and IL-4, ELISA); format: in vivo; details: administered to mice, serum levels with elapsed time, FIG. 6
Description: A large amount of cytokine is known to be released into the blood in a short duration of time when NKT cells are stimulated. Therefore, serum INF-γ and IL-4 levels with elapsed time were measured using the ELISA method when the synthesized glycolipids were administered to mice.

[4] = test system: experimental autoimmune encephalomyelitis (EAE); assay: EAE suppression test in NKT knockout mice; format: in vivo, NKT knockout mice (TCR J alpha 281 knockout mice); details: for Incidence / Max. score / Onset / Total score: NKT knockout mice, 0 day oral administration, 400 ng/kg
diabetes incidence = assay: suppression test of diabetes incidence in NOD mice; format: in vivo; details: NOD mice four weeks in age, 100 μg/kg intraperitoneal, twice, FIG. 5
Description: Next, a suppression test of diabetes incidence was conducted using NOD mice.

anti-MOG antibody = assay: serum anti-MOG antibody measurements (ELISA); format: in vivo; details: FIG. 10
Excerpt: The ELISA method was used to measure levels of anti-MOG antibody and its isotype in the group treated using synthesized glycolipids. The anti-MOG antibody level rose in the group treated using Compound 25.

[5] = test system: experimental autoimmune encephalomyelitis (EAE); assay: mechanism of EAE suppression, with or without anti-IL-4 antibody; format: in vivo, mice
[6] = test system: collagen induced arthritis; assay: collagen arthritis (CIA) suppression test, SJL mice; format: in vivo; details: FIG. 4
[7] = test system: collagen induced arthritis; assay: collagen arthritis (CIA) suppression test, C57BL6 mice; format: in vivo; details: B6 mice, 500 μg/kg intraperitoneally twice a week from the additional immunization, FIG. 4
[8] = test system: experimental autoimmune encephalomyelitis (EAE), collagen induced arthritis; details: J. Immunol. 2001, 166, 662-669, cited from earlier work
[9] = 0 day oral administration, clinical score 0-6
[10] = anti-IL-4 (+), anti-IL-4 antibody (1 mg/ml) intraperitoneally

Compound	spleen cell proliferation reaction (Murine spleen cells [1])	cytokine predominantly formed by spleen cells (INF-γ / IL-4) (Murine spleen cells [2])	Incidence ([3]; 0 day oral administration)	Onset ([3]; 0 day oral administration)	Total score ([3]; 0 day oral administration)	Max. score [3, 9]	Path. score ([3]; 0 day oral administration)	Incidence ([3]; 8th day oral administration)	Max. score ([3]; 8th day oral administration)	Onset ([3]; 8th day oral administration)	Total score ([3]; 8th day oral administration)	EAE suppression effect ([3]; result in words)	serum cytokine predominantly formed (INF-γ / IL-4) (serum INF-γ and IL-4)	Incidence [4]	Max. score [4]	Onset [4]	Total score [4]	Incidence [5, 10]	Max. score [5, 10]	Onset [5, 10]	also measured
CCCCCCCCCCCCCCCCCCCCCCCC(=O)N[C@@H](CO[C@H]1O[C@H](CO)[C@H](O)[C@H](O)[C@H]1O)[C@H](O)[C@H](O)CCCC [Compound 23, (2S,3S,4R)-1-O-(α-D-galactosyl)-2-(tetracosanoylamino)-1,3,4-octane triol]	Significant spleen cell proliferation reaction	IL-4 was predominantly formed																			
CCCCCCCCCCCCCCCCCCCCCCCC(=O)N[C@@H](CO[C@H]1O[C@H](CO)[C@H](O)[C@H](O)[C@H]1O)[C@H](O)[C@H](O)CCCCC [Compound 25, (2S,3S,4R)-1-O-(α-D-galactosyl)-2-(tetracosanoylamino)-1,3,4-nonane triol]	Significant spleen cell proliferation reaction	IL-4 was predominantly formed	10/12	14.80 ± 1.22	10.71 ± 3.23	1.42 ± 0.33	1.00 ± 0.13	6/7	2.25 ± 0.51	16.43 ± 1.95	10.94 ± 3.40	EAE suppression effect was observed	IL-4 was predominantly formed	6/6	3.64 ± 0.28	12.43 ± 0.53	34.36 ± 4.15	10/10	3.50 ± 0.15	9.43 ± 0.90	suppression effect in the pathological test ([3]; oral administration, result in words): suppression effect was observed; EAE suppression effect ([4]; NKT knockout mice (TCR J alpha 281 knockout mice), result in words): could not be observed; diabetes incidence (diabetes incidence): significantly suppressed; anti-MOG antibody isotype, IgG1 level (anti-MOG antibody): rose significantly; anti-MOG antibody level (anti-MOG antibody): rose; Total score [5, 10]: 38.79 ± 2.94; Incidence ([5]; anti-IL-4 (−)): 9/10; Max. score ([5]; anti-IL-4 (−)): 2.75 ± 0.37; Onset ([5]; anti-IL-4 (−)): 11.00 ± 0.78; Total score ([5]; anti-IL-4 (−)): 26.05 ± 4.16; EAE suppression effect when anti-IL-4 antibody was administered ([5]; anti-IL-4 antibody, result in words): disappeared; suppression of collagen induced arthritis (clinical score) ([6]; 500 μg/kg intraperitoneally twice a week from the additional immunization): effectively suppressed; suppression of collagen induced arthritis (clinical score) ([6]; 500 μg/kg intraperitoneally twice a week, administration upon appearance of symptoms): effectively suppressed; suppression of collagen induced arthritis (clinical score) [7]: A suppression effect was observed
CCCCCCCCCCCCCCCCCCCCCCCC(=O)N[C@@H](CO[C@H]1O[C@H](CO)[C@H](O)[C@H](O)[C@H]1O)[C@H](O)[C@H](O)CCC [Compound 24, (2S,3S,4R)-1-O-(α-D-galactosyl)-2-(tetracosanoylamino)-1,3,4-heptane triol]	Significant spleen cell proliferation reaction	IL-4 was predominantly formed																			
CCCCCCCCCCCCCCCCCCCCCCCCCC(=O)N[C@@H](CO[C@H]1O[C@H](CO)[C@H](O)[C@H](O)[C@H]1O)[C@H](O)[C@H](O)CCCCCCCCCCCCCC [α-GC, (2S,3S,4R)-1-O-(α-D-galactosyl)-2-(N-hexacosanoylamino)-1,3,4-octadecane triol, reference compound]		INF-γ was predominantly formed	12/12	14.27 ± 0.98	20.32 ± 4.07	2.41 ± 0.37	1.79 ± 0.38	7/7	3.00 ± 0.29	13.86 ± 0.99	17.50 ± 2.74	no suppression effect was observed	INF-γ was predominantly formed	6/6	3.67 ± 0.42	13.33 ± 1.41	32.25 ± 6.66	10/10	3.79 ± 0.29	11.29 ± 1.58	effect in suppressing or treating autoimmune diseases ([8]; EAE and collagen induced arthritis models): clearly not effective; cytokines induced [8]: induces both IL-4, a cytokine that suppresses autoimmune diseases, as well as IFN-γ; Total score [5, 10]: 37.00 ± 5.02; Incidence ([5]; anti-IL-4 (−)): 10/10; Max. score ([5]; anti-IL-4 (−)): 4.00 ± 0.25; Onset ([5]; anti-IL-4 (−)): 9.10 ± 0.84; Total score ([5]; anti-IL-4 (−)): 45.00 ± 3.87
